Calls of active or inactive are those of the source.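 How the source made its calls: active means compounds giving half or more protection of infected cells from virus-caused growth loss, again on retest; inactive means the rest.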
Tested on: CEM cells HIV-1 protection, formazan growth assay
Test: NCI AIDS Antiviral Assay
Conditions: for IC50: measured here: growth of uninfected CEM cells
Procedure, shortened: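 Protection of CEM cells against HIV-1 was scored from cell growth (soluble formazan) across five concentrations, with parallel uninfected cells. Lack of protection may reflect toxicity.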

SMILES	EC50 [µM]	IC50 [µM]	outcome
O=C(c1ccc([N+](=O)[O-])cc1[N+](=O)[O-])N(/N=C/C=C/c1ccccc1)c1nnc(-c2ccccc2)c(-c2ccccc2)n1	> 9.12	> 9.12	
N#CCCSC1SC(=C2SC3=C(SCCS3)S2)SC1SCCC#N (stereo not drawn)	> 200	> 200	
CCC[CH2][Sn]1([CH2]CCC)[O]CC(COc2c(Cl)cc(Cl)cc2Cl)[O]1 (stereo not drawn)	> 3.98	1.86	
CN(C)[C@@H]1C(=O)C(C(=O)NCNC2(C(=O)O)CCCC2)=C(O)[C@@]2(O)C(=O)C3=C(O)c4c(O)cccc4[C@@](C)(O)[C@H]3C[C@@H]12	> 214	117	
Cn1c(COc2ccc(/C=N\N3CCN(/N=C\c4ccc(OCc5c[n+]6ccccc6n5C)cc4)CC3)cc2)c[n+]2ccccc12	6.31	7.59	
CCc1ccc(N2C(=O)C(CC(=O)O)SC23C(=O)N(Cc2ccccc2)c2ccccc23)cc1 (stereo not drawn)	> 525	28.8	
CC1(C)CC(Br)(Cc2ccccc2)C(=O)c2ccccc21 (stereo not drawn)	> 200	7.94	
CC1CC(C)(C)C2=NCCN21 (stereo not drawn)	> 1620	> 1620	
C=C1CC(Cn2ccc(=O)[nH]c2=O)(c2ccc(-c3ccccc3)cc2)OC1=O (stereo not drawn)	> 20	0.479	
C=C(CN(C)C)C(=O)c1cc(C)ccc1C	> 200	11.2	
COC(=O)c1ccc(Oc2nc3ccc(C(F)(F)F)cc3nc2-c2ccccc2)cc1	> 200	> 200	
CCOC(=O)C(C)(C)Oc1ccc2c(-c3ccc(Cl)cc3)c(-c3ccc(Cl)cc3)c(=O)oc2c1	> 7.59	> 7.59	
CCCc1cc(=O)oc2c3c(c4c(c12)OC(N)=C(C#N)C4c1ccccc1)O[C@H](C)[C@@H](C)C3=O (stereo partly drawn)	> 200	8.71	
NNC(=S)N/N=C(/C(=O)Nc1ccc([N+](=O)[O-])cc1)c1nc2ccc([N+](=O)[O-])cc2[nH]c1=O	> 145	> 145	
Cn1c(=O)c(Cl)c(N=[N+]=[N-])c2ccccc21	> 75.9	55	
c1ccc(C[N+]23CCC(CC2)C3c2ccccc2)cc1 (stereo not drawn)	> 832	148	
CCOC(=O)NC(Nc1c(F)c(F)c(F)c(F)c1F)(C(F)(F)F)C(F)(F)F	> 200	141	
Cc1ccc(C2=Nc3ccccc3SC(c3cccc4c3OCO4)C2)cc1 (stereo not drawn)	> 14.1	> 14.1	
O=C1C2CCCC3CCCC(C(=O)N1NC1CCCCC1)C32 (stereo not drawn)	> 200	107	
Oc1ccc(-c2nn3c(CCCCCCCCc4nnc5sc(-c6ccc(O)cc6)nn45)nnc3s2)cc1	145	> 200	
Cc1ccc2cc(NC(=O)CN)c3ccc(C)nc3c2n1.Cc1ccc2cc(NC(=O)CN)c3ccc(C)nc3c2n1.O=C1OC(C(O)C[O-])C(O)=C1O.[Cu+]	> 12.6	0.562	
O=[N+]([O-])c1ccc(Cl)cc1C=NC12CC3CC(CC(C3)C1)C2	> 200	11.5	
N[C@@H](CSSCCO)C(=O)O	> 200	> 200	
O=C1c2c(c(-c3ccccc3)c(-c3ccccc3)c(-c3ccccc3)c2-c2ccccc2)C(=O)N1c1cccc(Br)c1	> 3.31	> 3.31	
Cc1cc2c(c3oc(=O)cc(C)c13)[C@@H](OC(=O)C13CCC(C)(C(=O)O1)C3(C)C)[C@@H](OC(=O)C13CCC(C)(C(=O)O1)C3(C)C)C(C)(C)O2 (stereo partly drawn)	0.912	> 200	
COC(=O)/C=C(C)/C=C\COC1CCCCO1 (stereo not drawn)	> 200	> 200	
CC1(C)O[C@@H](CCl)C[C@H](C#N)O1	> 200	> 200	
CC(CCC(=O)O)[C@H]1CCC2[C@@H]3C(=O)C[C@@H]4CC(O)CC[C@]4(C)C3CC[C@@]21C (stereo partly drawn)			inactive
C/C=C/C(=O)C(C)C1=CC(=O)C2=C(OC34CC[C@H](O)C(C)(C)[C@@H]3CC[C@H](C)C4(C)C2)C1=O (stereo partly drawn)			inactive
COc1ccc(CCn2ccc(C)n2)c(OC)c1	> 200	> 200	
